From patent US9462807B2, “Difenoconazole sterepospmeric composition with reduced phytotoxicity” (Syngenta Participations AG, priority 2013, dated 2016)

Test system: Wheat (variety "Riband")
Assay: Phytotoxicity on pot-grown wheat after track-sprayer application
Type: in vivo
Details: versus 2S,4R (Ia), 2R,4R (Ic) and 2S,4S (Id)
Experimental: Wheat seeds (variety “Riband”) were sown in 6.5 cm diameter pots with typically 6 seeds per pot. The growing media comprised 66.5% TKS1 peat soil, 30% sugar beet soil and 3.5% sand. The seeds were covered with a fine layer of soil and the pots were watered. Within a day of sowing the pots were treated with 5 mL of a solution of the growth regulator trinexapac-ethyl (Moddus 250 EC™ from Syngenta) diluted 1 part in 1000 parts water. The pots were kept in a controlled environment room at 19° C. constant temperature, 60% relative humidity and a 14 hour day length until test treatment at which time the plants were around 3 weeks old. Plant density was reduced to typically 4 plants per pot prior to application of the test treatments.
The difenoconazole formulations were mixed with water and ultrasonically agitated in order to achieve a homogeneous emulsion. Spray solutions were then made with 9 parts water to 1 part isopropanol by volume. The test treatments were applied using a track-sprayer with a single flat-fan nozzle at a height of 60 cm and calibrated to apply the equivalent of 200 litres per hectare.
The symptoms of phytotoxicity on wheat caused by difenoconazole included chlorosis and/or necrosis.
Test wheat plants were grown and the formulations applied as for Example 3. […]

## C[C@H]1CO[C@](Cn2cncn2)(c2ccc(Oc3ccc(Cl)cc3)cc2Cl)O1 [Ib]
  Phytotoxic damage to wheat compared with the other stereoisomers: less phytotoxic damage
